Data taken from US8187821B2, “Compositions and methods for the modulation of PGRMC1” (University of Utah Research Foundation, priority 2008, dated 2012).

Experiments:
His10-PGRMC1 [1] = biological target: T1, His10-PGRMC1 (Homo sapiens, UniProt O00264); test: Competition of cold competitors with [^3H] progesterone or [^3H] cholesterol for His10-PGRMC1 binding; conditions: for effect of cold competitor on binding of [^3H] cholesterol: competitor at ten-fold higher concentration; for effect of cold competitor on specific binding of [^3H] progesterone: excess cold competitor (10 or 100-fold), FIG. 9
T1 construct: a product containing the full length coding region of PGMRC1 flanked by Nde1 and BamHI restriction sites; made in house; host or cells: E. coli BL21 (DE3) / BL21 codon plus (RIPL); purified bacterial membranes
Method: The standard 10 μL binding reaction contained 10 μp purified membranes (total protein) and 10 μM [^3H] progesterone or [^3H] cholesterol (3,000-5,000 cpm) in buffer A: 20% ethanol. Stock solutions (100 μM) of [^3H] cholesterol and [^3H] progesterone containing ˜4×10^4 cpm/μL, were prepared in 95% ethanol. Reactions were prepared in clear 2.0 mL microcentrifuge tubes on ice. To start the reaction, the microfuge tube was briefly mixed (vortex) and placed at 37° C. Following a 10 to 30 min incubation, the tubes were centrifuged in a microfuge (˜13,000 rpm) for 2 min. The supernatant was carefully removed and the pellet was washed with an additional 10 μL water. After a second round of centrifugation (2 min; 13,000 rpm), the resulting supernatant was combined with the first and the pellet was resuspended in 20 μL H2O, Scintillation fluid (700 μL Wallac Optiflour) was added to each fraction and the fractions were mixed extensively. The fractions were then counted in a multi-well scintillation counter (Wallac Microbeta Triluxmax, Waltham, Mass.) for 30 seconds each. Binding are reported as μ/moles of ligand bound per mg of membrane protein. His10-PGRMC1 (His10 disclosed as SEQ ID NO: 14)-specific binding is reported as the difference in binding between transformed and untransformed bacteria. Experimental deviations from the standard assay conditions are noted in individual figure legends.
To test whether progesterone and cholesterol compete for the same specific binding site, the direct binding of [^3H] progesterone or [^3H] cholesterol to His10-PGRMC1 (His10 disclosed as SEQ ID NO: 14) in the presence of various cold competitors was examined. In these experiments, the standard amount of [^3H] ligand was combined with a cold competitor at either 10 or 100-fold higher concentration and mixed well to ensure homogeneity. These stock ligand solutions were then used in the standard binding assay as described.
The ability of other putative ligands reported in the literature to compete with progesterone binding was examined. […] As a control, cold progesterone (P) was used as a competitor and it was observed that excess cold progesterone competes with [^3H] progesterone for His10-PGRMC1 (His10 disclosed as SEQ ID NO: 14) binding. Contrastingly, binding of [^3H] cholesterol to His10-PGRMC1 (His10 disclosed as SEQ ID NO: 14) was unaffected by the presence of progesterone, ergosterol, or heme at ten-fold higher concentrations (FIG. 9, cholesterol). It was not until competitor concentrations were 100-fold higher than ligand that a reduction of cholesterol binding was observed.

His10-PGRMC1 [2] = biological target: T1, His10-PGRMC1; test: Coupled time-course proteolysis experiment (protease-sensitive vs protease-resistant specific binding); conditions: trypsin after ligand incubation, FIG. 10
Description: (§1) Since data from the competition assays indicate that progesterone and cholesterol bind to the same site within His10-PGRMC1 (His10 disclosed as SEQ ID NO: 14), the reason for the observation of more cholesterol binding in our assays was examined. There appear to be two plausible explanations: one possibility is that there are more cholesterol-specific binding sites on His10-PGRMC1 (His10 disclosed as SEQ ID NO: 14) that comprise the increase in observed binding; the other is that His10-PGRMC1 (His10 disclosed as SEQ ID NO: 14) is catalyzing the incorporation of cholesterol into the membrane. To distinguish between these possibilities, a coupled time-course proteolysis experiment was performed. In these studies, [^3H] progesterone and [^3H] cholesterol were incubated with membranes ±His10-PGRMC1 (His10 disclosed as SEQ ID NO: 14) for increasing time periods. At the end of the incubation period, the membranes were isolated, washed, and resuspended in a trypsin solution to remove all His10-PGRMC1 (His10 disclosed as SEQ ID NO: 14) protein. In this manner any ligand specifically bound to His10-PGRMC1 (His10 disclosed as SEQ ID NO: 14) would be protease-sensitive and be removed from the membrane fraction. Any ligand incorporated into the membrane or other protected site will be protease-resistant and remain in the membrane fraction. After proteolysis the reactions were separated by centrifugation into protease-resistant (membrane) and protease-sensitive (supernatant) fractions and ligand amount determined. […] Total specific binding of progesterone (FIG. 10A, diamonds) increasing over time and occurring at levels consistent with previous studies was observed. […] It is important to note that this ligand incorporation reaction is specific to bound cholesterol as it was observed that all bound progesterone was protein associated. Collectively our findings describe an important and previously uncharacterized function for PGRMC1 and sterol binding proteins in general, that of catalyzing the incorporation of cholesterol into membranes.

His10-PGRMC1 [3] = test: as above; parameters: species or system human; conditions: trypsin after ligand incubation, FIG. 10
Description: as §1

[4] = Solubility of ligand in the binding assay; assay type: physicochemical; conditions: binding assay buffer; read-out: concentration above which only partially soluble in the assay
Method: Next, the question of whether binding of ligand to His10-PGRMC1 (His10 disclosed as SEQ ID NO: 14) is saturable was examined. […] Ligand binding time was held constant while increasing the ligand concentration by half logs in each experiment. The ligand concentration spanned four orders of magnitude from lowest to highest. […] Cholesterol was only partially soluble in our assay at concentrations greater than 3 mM so testing saturation at higher concentrations was unable to be performed.

T1 sequence (O00264 whole entry): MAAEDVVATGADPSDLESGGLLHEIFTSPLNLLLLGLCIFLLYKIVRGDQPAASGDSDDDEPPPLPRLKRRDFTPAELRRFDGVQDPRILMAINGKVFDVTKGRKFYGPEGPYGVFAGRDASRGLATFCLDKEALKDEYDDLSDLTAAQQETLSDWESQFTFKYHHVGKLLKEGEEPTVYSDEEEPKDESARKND

Row | SMILES | competitor excess over ligand at which a reduction of [^3H] cholesterol binding was observed (His10-PGRMC1 [1]) [fold] | effect of cold competitor on binding of [^3H] cholesterol (His10-PGRMC1 [1]) | effect of cold competitor on specific binding of [^3H] progesterone (His10-PGRMC1 [1]) | protease-sensitive (protein-associated) specific binding (His10-PGRMC1 [2]) | protease-resistant (membrane-associated) specific binding (His10-PGRMC1 [3]) | solubility [4] [µM]
1 | CC(C)CCC[C@@H](C)[C@H]1CC[C@H]2[C@@H]3CC=C4C[C@@H](O)CC[C@]4(C)[C@H]3CC[C@]12C [Cholesterol, cholesterol] | 100 | did not begin to reduce | greatly reduced | decreased over time | increasingly protease-resistant | > 3000
2 | CC(=O)[C@H]1CC[C@H]2[C@@H]3CCC4=CC(=O)CC[C@]4(C)[C@H]3CC[C@]12C [Progesterone, progesterone] |  | unaffected | competes | essentially all | virtually no | 
